Assay [1] has as its system Pseudomonas aeruginosa. The assay is described as follows: Inhibition of biofilm formation in Pseudomonas aeruginosa at MIC incubated for 48 hrs by crystal violet staining based analysis relative to control. The format is functional.
Assay [2] relates to Pseudomonas aeruginosa. The assay is described as follows: Antivirulence activity in Pseudomonas aeruginosa assessed as inhibition of pyocyanin production by measuring OD at […] at sub-MIC by chloroform-HCl extraction method relative to control. The assay is classed as functional.
Assay [3] concerns Pseudomonas aeruginosa. The assay is described as follows: Inhibition of biofilm formation in Pseudomonas aeruginosa at sub-MIC by crystal violet staining based analysis relative to control. The format is functional.
Assay [4] relates to Pseudomonas aeruginosa. The assay is described as follows: Antivirulence activity in Pseudomonas aeruginosa assessed as inhibition of pyocyanin production at sub-MIC by chloroform-HCl extraction method relative to control. The assay is classed as functional.
The subject of assay [5] is Pseudomonas aeruginosa. The assay is described as follows: Antimicrobial activity against Pseudomonas aeruginosa ATCC 27853 assessed as growth inhibition zone by agar diffusion method. The assay is classed as functional.
For assay [6], the system named is Pseudomonas aeruginosa. The assay is described as follows: Inhibition of biofilm formation in Pseudomonas aeruginosa assessed as absorbance by measuring OD at 570 nm at sub-MIC by crystal violet staining based analysis (reference value: 0.635 +/- 0.014). The assay is classed as functional.
The subject of another assay is Staphylococcus aureus. The assay is described as follows: Antimicrobial activity against Staphylococcus aureus ATCC 43300 assessed as growth inhibition zone by agar diffusion method. The assay is classed as functional. Background: Agar diffusion results depend on both activity and mobility in agar.
The subject of another assay is Bacillus subtilis. The assay is described as follows: Antimicrobial activity against Bacillus subtilis ATCC 6633 assessed as growth inhibition zone by agar diffusion method. The format is functional.
In assay [7] the test system is Pseudomonas aeruginosa. The assay is described as follows: Antivirulence activity in Pseudomonas aeruginosa assessed as inhibition of rhamnolipids production at sub-MIC by spectrophotometric method relative to control. The format is functional.
The subject of a further assay is Escherichia coli. The assay is described as follows: Antimicrobial activity against Escherichia coli ATCC 25922 assessed as growth inhibition zone by agar diffusion method. The format is functional.
Assay [8] concerns Pseudomonas aeruginosa. The assay is described as follows: Antibacterial activity against Pseudomonas aeruginosa by CLSI protocol based broth microdilution method. Particulars: for MIC: Pseudomonas aeruginosa. The assay is classed as functional. A general note: Dilution methods test growth across graded concentrations, often in twofold steps.
In a further assay the test system is Klebsiella pneumoniae. The assay is described as follows: Antimicrobial activity against Klebsiella pneumoniae ATCC 700603 assessed as growth inhibition zone by agar diffusion method. The format is functional.
For a further assay, the system named is Candida albicans. The assay is described as follows: Antimicrobial activity against Candida albicans ATCC 60193 assessed as growth inhibition zone by agar diffusion method. The assay is classed as functional.
In assay [9] the test system is Pseudomonas aeruginosa. The assay is described as follows: Antibacterial activity against Pseudomonas aeruginosa assessed as effect on bacterial growth at 37.5 microg/ml incubated for 24 hrs by growth curve analysis. The following applies: dose 37.5 µg/ml. The assay is classed as functional, organism-based.
Assay [10] is described as follows: Inhibition of quorum sensing system in Pseudomonas aeruginosa MH602 transfected with lasB promoter expressing gfp-ASV at 250 uM incubated for 20 hrs by microplate reader analysis relative to control.
Assay [11] is described as follows: Inhibition of quorum sensing system in Pseudomonas aeruginosa MH602 transfected with lasB promoter expressing gfp-ASV at 62.5 uM incubated for 20 hrs by microplate reader analysis relative to control.
Assay [12] can be described thus: Inhibition of quorum sensing system in Pseudomonas aeruginosa MH602 transfected with lasB promoter expressing gfp-ASV at 125 uM incubated for 20 hrs by microplate reader analysis relative to control.
Assay [13] relates to Pseudomonas aeruginosa. The assay is described as follows: Antibacterial activity against Pseudomonas aeruginosa assessed as bacterial mortality relative to control. The assay is classed as functional.
In assay [14] the test system is Pseudomonas aeruginosa. The assay is described as follows: Antibacterial activity against Pseudomonas aeruginosa assessed as effect on bacterial growth at 16 microg/ml incubated for 24 hrs by growth curve analysis. The assay is classed as functional, organism-based. Particulars: dose 16.0 µg/ml.
Assay [15] deals with Pseudomonas aeruginosa. The assay is described as follows: Antibacterial activity against Pseudomonas aeruginosa assessed as 1/4 MIC by CLSI protocol based broth microdilution method. The format is functional.
A short description of assay [16]: Inhibition of quorum sensing system in Pseudomonas aeruginosa PAO1 transfected with lasB-gfp reporter gene incubated for >=12 hrs by fluorescence based microplate reader analysis. (In general: In a reporter assay the amount or activity of a reporter protein is the signal.)
The subject of assay [17] is Pseudomonas aeruginosa. The assay is described as follows: Inhibition of biofilm formation in Pseudomonas aeruginosa PAO1 at 50 uM incubated for 24 hrs by crystal violet staining based analysis relative to control. The format is functional.
Assay [18] concerns Pseudomonas aeruginosa. The assay is described as follows: Antibiofilm activity against Pseudomonas aeruginosa assessed as inhibition of biofilm biomass at 300 microg/ml measured after 48 hrs relative to control. The assay is classed as functional.
Assay [19] can be described thus: Inhibition of quorum sensing system in Pseudomonas aeruginosa transfected with lasB-gfp reporter gene incubated for 20 hrs by fluorescence based multilabel plate reader analysis.
The test system of assay [20] is Pseudomonas aeruginosa. The assay is described as follows: Inhibition of biofilm formation in Pseudomonas aeruginosa PAO1 at 64 microg/ml relative to control. The format is functional.
A short description of assay [21]: Inhibition of quorum sensing system in Pseudomonas aeruginosa PAO1 assessed as reduction in pyocyanin production at 256 microg/ml relative to control. The following applies: dose 256.0 µg/ml.
Assay [22] has as its system Pseudomonas aeruginosa. The assay is described as follows: Antibacterial activity against Pseudomonas aeruginosa assessed as bacterial mortality in presence of clarithromycin relative to control. The format is functional.
Assay [23] relates to Pseudomonas aeruginosa. The assay is described as follows: Antibacterial activity against Pseudomonas aeruginosa assessed as bacterial mortality in presence of ciprofloxacin relative to control. The format is functional.
The test system of assay [24] is Pseudomonas aeruginosa. The assay is described as follows: Antibacterial activity against Pseudomonas aeruginosa assessed as effect on bacterial growth at 9.375 microg/ml incubated for 24 hrs by growth curve analysis. The format is functional, organism-based. The following applies: dose 9.375 µg/ml.
For assay [25], the target named is T1, Transcriptional activator protein LasR (Pseudomonas aeruginosa (strain ATCC 15692 / PAO1 / 1C / PRS 101 / LMG12228), UniProt P25084).
T1 sequence (P25084 whole entry): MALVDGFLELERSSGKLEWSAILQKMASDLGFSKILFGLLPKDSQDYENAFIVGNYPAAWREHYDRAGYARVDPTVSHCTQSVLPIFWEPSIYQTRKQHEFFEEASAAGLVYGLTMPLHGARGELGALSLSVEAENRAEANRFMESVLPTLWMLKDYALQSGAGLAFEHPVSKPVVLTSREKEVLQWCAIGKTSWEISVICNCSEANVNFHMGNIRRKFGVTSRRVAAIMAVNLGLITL
The assay is described as follows: Inhibition of Pseudomonas aeruginosa LasR in Escherichia coli DH5 transfected with lacZ reporter and JN105 production plasmid incubated for 4 hrs by beta-galactosidase reporter based miller test.

Converted amounts (≈) assume the structure as drawn. The source made the active and inactive calls. No cut-off for these calls is given here.

For the molecule `COC(=O)c1ccc(/N=N/c2c(N)nn3c(N)c(C#N)c(-c4ccc(N(C)C)cc4)nc23)cc1`, the “inhibition (INH)” value with Pseudomonas aeruginosa [1] is recorded as 69%.
Broadly, the inhibition is the share of the control response that was lost under treatment. As usually defined, the MIC is the lowest concentration found to suppress growth. Take `Cc1cc(C)n2ncc(-c3nc4ccccc4s3)c2n1`: the OD in the assay on Pseudomonas aeruginosa [2] came out at 0.407; with Pseudomonas aeruginosa [6] it was 0.631. The inhibition result in the assay on Pseudomonas aeruginosa [3] and in the assay with Pseudomonas aeruginosa [7] was “inactive” each time. In the assay on Pseudomonas aeruginosa [4], the “inhibition (INH)” value came to 8.5%. Also, the “inhibition zone (IZ)” value in the assay on Pseudomonas aeruginosa [5] was found to be 17 mm; in the assay with Staphylococcus aureus, 18 mm; in the assay on Bacillus subtilis, 15 mm; in the assay on Escherichia coli, 17 mm; in the assay with Klebsiella pneumoniae, 19 mm; in the assay on Candida albicans it was 20 mm. In the assay on Pseudomonas aeruginosa [8], this molecule came in with a SubMIC of 37.5 µg/mL. The minimal inhibitory concentration (MIC) in the assay with Pseudomonas aeruginosa [8] worked out at 75 µg/mL. The result in the assay with Pseudomonas aeruginosa [9] was inactive.
On to `O=C(Cn1cc(-c2ccc([N+](=O)[O-])cc2)nn1)Nc1nc2ccccc2[nH]1`, for which the figures for the inhibition in assay [10], in assay [11] and in [12] were 68.2%, 63.7% and 67.1%, respectively.
The term mortality denotes the share of the test organisms that died. For the molecule `CC[C@H]1OC(=O)[C@H](C)[C@@H](O[C@H]2C[C@@](C)(OC)[C@@H](O)[C@H](C)O2)[C@H](C)[C@@H](O[C@@H]2O[C@H](C)C[C@H](N(C)C)[C@H]2O)[C@](C)(OC)C[C@@H](C)C(=O)[C@H](C)[C@@H](O)[C@]1(C)O` [CLARITHROMYCIN], the mortality in the assay with Pseudomonas aeruginosa [13] came to 29.11%.
For the molecule `CC[C@H]1OC(=O)[C@H](C)[C@@H](O[C@H]2C[C@@](C)(OC)[C@@H](O)[C@H](C)O2)[C@H](C)[C@@H](O[C@@H]2O[C@H](C)C[C@H](N(C)C)[C@H]2O)[C@](C)(O)C[C@@H](C)CN(C)[C@H](C)[C@@H](O)[C@]1(C)O` [AZITHROMYCIN], the OD is given as 0.216 with Pseudomonas aeruginosa [2] and 0.307 in the assay on Pseudomonas aeruginosa [6]. For the same molecule, the results for the “inhibition (INH)” value in the assay with Pseudomonas aeruginosa [3], in the assay on Pseudomonas aeruginosa [4] and in the assay on Pseudomonas aeruginosa [7] were 21.7%, 51.5% and 47.4%, respectively. The result with Pseudomonas aeruginosa [14] was inactive. The minimum inhibitory concentration (MIC) in the assay with Pseudomonas aeruginosa [15] came out at 20.1 µM (≈ 15.1 µg/mL); against Pseudomonas aeruginosa [8], 85.4 µM. For the same molecule, in the assay on Pseudomonas aeruginosa [8], the SubMIC was 16 µg/mL.
One may read the IC50 as the concentration at which inhibition is half-maximal. Read a high IC50 as a need for much substance. `[O-][S+](Cc1ccc(Cl)cc1)c1nc2cc(Cl)ccc2o1` (stereo unspecified) returned an IC50 in [16] of 2080 nM. The molecule further came in with an inhibition at 50 µM with Pseudomonas aeruginosa [17] of 46.1%.
Consider `COc1ccc(C(=O)CSc2nc3ccccc3s2)c(OC)c1`, for which, in the assay with Pseudomonas aeruginosa [18], the inhibition at 300 µg/mL amounted to 70%. In [19], this molecule had a half-maximal inhibitory concentration (IC50) of 45.5 µg/mL (≈ 132 µM).
On to `COc1ccc(OCCCCCCCC(=O)NNC(=O)Cn2c(=O)oc3ncccc32)cc1`, for which, in the assay with Pseudomonas aeruginosa [20], the inhibition at 64 µg/mL was 40%. Further, the inhibition in [21] amounted to 46.9%. Moreover, the mortality is recorded as 49.79% in the assay with Pseudomonas aeruginosa [22] and 48.27% in the assay on Pseudomonas aeruginosa [23].
On to `Nc1[nH]ncc1-c1nc2ccccc2s1`, for which the OD with Pseudomonas aeruginosa [2] came to 0.425; with Pseudomonas aeruginosa [6] it was 0.612. For the same molecule, the inhibition result in the assay on Pseudomonas aeruginosa [3] and in the assay on Pseudomonas aeruginosa [7] was “inactive” each time. For the same molecule, in the assay on Pseudomonas aeruginosa [4], the “inhibition (INH)” value was 4.5%. For the same molecule, the “inhibition zone (IZ)” value in the assay with Pseudomonas aeruginosa [5] is on record as 16 mm; in the assay with Staphylococcus aureus it was 15 mm; in the assay with Bacillus subtilis, 15 mm; in the assay with Escherichia coli, 16 mm; in the assay on Klebsiella pneumoniae it was 18 mm; in the assay on Candida albicans, 17 mm. Further, the SubMIC in the assay with Pseudomonas aeruginosa [8] was 37.5 µg/mL. The lowest concentration to inhibit growth with Pseudomonas aeruginosa [8] (MIC) was 75 µg/mL. In addition, the outcome with Pseudomonas aeruginosa [9] was inactive.
As to `O=C(O)c1cn(C2CC2)c2cc(N3CCNCC3)c(F)cc2c1=O` [CIPROFLOXACIN], in the assay on Pseudomonas aeruginosa [13], the mortality was determined as 16.99%.
Consider `CN1CCN(c2ccc(/C=C(\C#N)c3nc4ccccc4s3)cc2)CC1`, for which the figures for the OD in the assay with Pseudomonas aeruginosa [2] and with Pseudomonas aeruginosa [6] were 0.113 and 0.146, respectively. Besides, the “inhibition (INH)” value in the assay on Pseudomonas aeruginosa [3] is listed as 77%; in the assay with Pseudomonas aeruginosa [4], 74.6%; with Pseudomonas aeruginosa [7], 58.5%. Further, the outcome in the assay with Pseudomonas aeruginosa [24] was inactive. Moreover, the “inhibition zone (IZ)” value with Pseudomonas aeruginosa [5] worked out at 26 mm; in the assay on Staphylococcus aureus it was 28 mm; with Bacillus subtilis, 25 mm; in the assay with Escherichia coli it was 26 mm; in the assay with Klebsiella pneumoniae it was 27 mm; in the assay on Candida albicans it was 30 mm. Further, in assay [25], the midpoint of inhibition, the IC50, lay at 1370 nM. Also, the SubMIC with Pseudomonas aeruginosa [8] is 9.375 µg/mL. Besides, the minimal inhibitory concentration (MIC) with Pseudomonas aeruginosa [8] is 18.8 µg/mL.

Source of the values: ChEMBL document CHEMBL6127070, “Design, synthesis, and molecular dynamic simulations of some novel benzo[d]thiazoles with anti-virulence activity against Pseudomonas aeruginosa” (Eur J Med Chem, 2024).
